Assay results reported in ChEMBL document CHEMBL5576154, “Targeted suppression of oral squamous cell carcinoma by pyrimidine-tethered quinoxaline derivatives” (RSC Med Chem, 2024).

What was measured:
Pyruvate kinase PKM = Pyruvate kinase PKM (Homo sapiens, UniProt P14618); test: Activation of PKM2 (unknown origin) by LDH enzyme coupled assay
[1] = Antiproliferative activity against OSCC (unknown origin); type: functional, cell-based; conditions: Oral cancer cell
CAL-27 [2] = test: Cytotoxicity against human CAL-27 cells incubated for 24 hrs by Alamar blue assay; conditions: CAL-27, 24 h
[3] = Cytotoxicity against normal epithelial cells (unknown origin) incubated for 24 hrs by Alamar blue assay; type: toxicity, cell-based, Epithelial cell
CAL-27 [4] = test: Induction of apoptosis in human CAL-27 cells assessed as viable cells at IC50 concentration incubated for 24 hrs by Annexin V-FITC/PI staining based flow cytometry analysis (reference value: 97.36%); type: functional
[5] = biological target: Vascular endothelial growth factor receptor 2 (Homo sapiens, UniProt P35968); test: Inhibition of human VEGFR2 by ELISA
Sequence of Vascular endothelial growth factor receptor 2 (P35968 whole entry): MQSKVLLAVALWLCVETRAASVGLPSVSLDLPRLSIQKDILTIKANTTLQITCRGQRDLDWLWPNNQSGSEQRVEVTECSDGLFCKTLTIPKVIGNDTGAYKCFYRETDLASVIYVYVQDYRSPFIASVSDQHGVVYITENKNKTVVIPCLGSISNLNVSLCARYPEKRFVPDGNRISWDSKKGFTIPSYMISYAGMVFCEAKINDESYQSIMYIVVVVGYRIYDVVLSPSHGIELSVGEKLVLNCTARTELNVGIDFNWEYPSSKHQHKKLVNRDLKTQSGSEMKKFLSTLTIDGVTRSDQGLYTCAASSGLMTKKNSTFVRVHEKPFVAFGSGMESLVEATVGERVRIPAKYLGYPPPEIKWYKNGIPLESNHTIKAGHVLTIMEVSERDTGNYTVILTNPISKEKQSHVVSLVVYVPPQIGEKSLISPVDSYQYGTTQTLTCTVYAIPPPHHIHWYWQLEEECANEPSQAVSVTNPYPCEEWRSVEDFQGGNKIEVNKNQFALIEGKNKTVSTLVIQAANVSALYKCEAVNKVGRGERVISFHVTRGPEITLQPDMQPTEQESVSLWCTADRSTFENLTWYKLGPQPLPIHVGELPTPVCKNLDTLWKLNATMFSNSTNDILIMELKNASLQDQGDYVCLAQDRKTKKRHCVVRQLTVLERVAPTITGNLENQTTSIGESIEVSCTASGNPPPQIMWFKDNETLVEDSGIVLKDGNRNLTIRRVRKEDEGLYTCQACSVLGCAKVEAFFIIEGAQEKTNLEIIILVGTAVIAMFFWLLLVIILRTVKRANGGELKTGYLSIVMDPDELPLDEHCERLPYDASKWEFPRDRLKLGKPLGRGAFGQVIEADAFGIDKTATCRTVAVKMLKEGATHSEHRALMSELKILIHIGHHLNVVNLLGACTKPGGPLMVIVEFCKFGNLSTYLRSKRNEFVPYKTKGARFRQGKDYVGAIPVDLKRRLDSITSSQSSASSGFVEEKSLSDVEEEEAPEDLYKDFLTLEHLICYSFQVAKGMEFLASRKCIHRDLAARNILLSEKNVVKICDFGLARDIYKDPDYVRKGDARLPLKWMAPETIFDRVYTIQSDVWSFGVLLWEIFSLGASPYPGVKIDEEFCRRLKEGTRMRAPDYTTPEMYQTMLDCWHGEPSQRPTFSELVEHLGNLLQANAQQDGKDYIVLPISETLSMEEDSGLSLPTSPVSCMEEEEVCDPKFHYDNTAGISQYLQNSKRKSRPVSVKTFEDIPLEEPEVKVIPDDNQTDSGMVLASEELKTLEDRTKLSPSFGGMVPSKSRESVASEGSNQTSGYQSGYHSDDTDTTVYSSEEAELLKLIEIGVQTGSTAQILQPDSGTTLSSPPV

Sequence of Pyruvate kinase PKM (P14618 whole entry): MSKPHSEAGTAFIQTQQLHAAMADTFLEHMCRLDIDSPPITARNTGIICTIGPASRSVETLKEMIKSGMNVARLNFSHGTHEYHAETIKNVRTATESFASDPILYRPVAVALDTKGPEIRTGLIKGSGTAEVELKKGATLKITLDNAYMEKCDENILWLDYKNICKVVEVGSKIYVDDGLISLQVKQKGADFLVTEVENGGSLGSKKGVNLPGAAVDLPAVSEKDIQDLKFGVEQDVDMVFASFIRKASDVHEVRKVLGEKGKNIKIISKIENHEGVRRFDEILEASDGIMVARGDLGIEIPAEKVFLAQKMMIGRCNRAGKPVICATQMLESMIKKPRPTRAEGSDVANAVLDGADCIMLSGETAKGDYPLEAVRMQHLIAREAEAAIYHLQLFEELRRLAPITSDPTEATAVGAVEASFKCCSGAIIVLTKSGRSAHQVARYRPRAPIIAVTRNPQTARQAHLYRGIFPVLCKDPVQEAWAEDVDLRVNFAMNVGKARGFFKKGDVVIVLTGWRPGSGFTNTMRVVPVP

Structure (SMILES)	IC50 (CAL-27 [2])	IC50 at 24 h [3]	also measured
O=S(=O)(c1ccc2c(c1)OCCO2)N1CCN(S(=O)(=O)c2c(F)cccc2F)CC1	–	–	EC50 (Pyruvate kinase PKM): 0.241 µM
COc1ccc(OC)c(C(=O)/C=C/c2ccc3nccnc3c2)c1	–	–	IC50 [1]: 7.81 µM
Clc1cc2ncc(-c3cnc4ncccn34)nc2cc1Cl	25.3 µM	15.8 µM	–
O=C(c1ccccc1)c1ccc2ncc(-c3cnc4ccccn34)nc2c1	14.6 µM	24.9 µM	–
c1ccc2nc(-c3cnc4ccccn34)cnc2c1	> 100 µM	–	–
FC(F)(F)c1ccc(-c2ccn3c(-c4cnc5ccccc5n4)cnc3n2)cc1	> 100 µM	–	–
Cc1ccc(-c2ccn3c(-c4cnc5ccccc5n4)cnc3n2)cc1	64.8 µM	–	–
c1ccc2nc(-c3cnc4ncccn34)cnc2c1	> 100 µM	–	–
CS(=O)(=O)c1ccc(-c2ccn3c(-c4cnc5ccccc5n4)cnc3n2)cc1	> 100 µM	–	–
Brc1ccc2ncc(-c3cnc4ncccn34)nc2c1	21.6 µM	15.2 µM	–
Clc1ccc(-c2ccn3c(-c4cnc5ccccc5n4)cnc3n2)cc1	–	–	Activity (CAL-27 [4]): 79.07%
Clc1ccc2ncc(-c3cnc4ncccn34)nc2c1	> 100 µM	–	–
Clc1ccc2ncc(-c3cnc4ccccn34)nc2c1	12.8 µM	19.2 µM	–
Cc1nc2ccccc2n(CC(=O)Nc2ccc(C(=O)Nc3cccc(Cl)c3)cc2)c1=O	–	–	IC50 [5]: 0.0027 µM
Clc1ccccc1-c1ccn2c(-c3cnc4ccccc4n3)cnc2n1	13.7 µM	133 µM	–
O=C(c1ccccc1)c1ccc2ncc(-c3cnc4ncccn34)nc2c1	17 µM	16.7 µM	–
Cc1ccc2ncc(-c3cnc4ccccn34)nc2c1	18.5 µM	22.5 µM	–
O=[N+]([O-])c1ccc2ncc(-c3cnc4ccccn34)nc2c1	27.2 µM	20.8 µM	–
c1ccc(-c2ccn3c(-c4cnc5ccccc5n4)cnc3n2)cc1	10.3 µM	47.5 µM	–
Fc1ccc(-c2ccn3c(-c4cnc5ccccc5n4)cnc3n2)cc1	> 100 µM	–	–
Fc1ccccc1-c1ccn2c(-c3cnc4ccccc4n3)cnc2n1	> 100 µM	–	–
Fc1ccc2ncc(-c3cnc4ncccn34)nc2c1	> 100 µM	–	–
Clc1ccc(-c2ccn3c(-c4cnc5ccccc5n4)cnc3n2)c(Cl)c1	> 100 µM	–	–
Fc1ccc2ncc(-c3cnc4ccccn34)nc2c1	> 100 µM	–	–
Clc1cc2ncc(-c3cnc4ccccn34)nc2cc1Cl	15.1 µM	23.9 µM	–
Brc1ccc2ncc(-c3cnc4ccccn34)nc2c1	16 µM	20.9 µM	–
O=[N+]([O-])c1ccc2ncc(-c3cnc4ncccn34)nc2c1	19.7 µM	18.3 µM	–
Cc1ccc2ncc(-c3cnc4n3C=C=C=N4)nc2c1	> 100 µM	–	–
